Reference: PubChem BioAssay (NCI)
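In this assay, cells in 96-well plates receive the compound at five concentrations for 48 hours. Endpoints are linearly interpolated between the surrounding concentrations. GI50 is the concentration that inhibits growth by half. Definition used: TGI = concentration required for complete inhibition of growth.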

How the values were obtained:
Experiment in all cases: DTP human tumour cell line panel, 48 h
786-0 renal = test system: 786-0 renal
A498 renal = test system: A498 renal
A549 NSCLC = test system: A549 NSCLC
ACHN renal = test system: ACHN renal
BT-549 breast = test system: BT-549 breast
CAKI-1 renal = test system: CAKI-1 renal
CCRF-CEM leukemia = test system: CCRF-CEM leukemia
DU-145 prostate = test system: DU-145 prostate
EKVX NSCLC = test system: EKVX NSCLC
HCC-2998 colon = test system: HCC-2998 colon
HCT-116 colon = test system: HCT-116 colon
HCT-15 colon = test system: HCT-15 colon
HL-60(TB) leukemia = test system: HL-60(TB) leukemia
HOP-62 NSCLC = test system: HOP-62 NSCLC
HS 578T breast = test system: HS 578T breast
HT29 colon = test system: HT29 colon
IGROV1 ovarian = test system: IGROV1 ovarian
K-562 leukemia = test system: K-562 leukemia
KM12 colon = test system: KM12 colon
M14 melanoma = test system: M14 melanoma
MALME-3M melanoma = test system: MALME-3M melanoma
MCF7 breast = test system: MCF7 breast
MDA-MB-231 breast = test system: MDA-MB-231 breast
MDA-MB-435 = test system: MDA-MB-435
MOLT-4 leukemia = test system: MOLT-4 leukemia
NCI-H226 lung = test system: NCI-H226 lung
NCI-H23 lung = test system: NCI-H23 lung
NCI-H460 lung = test system: NCI-H460 lung
NCI-H522 lung = test system: NCI-H522 lung
NCI/ADR-RES ovarian = test system: NCI/ADR-RES ovarian
OVCAR-8 ovarian = test system: OVCAR-8 ovarian
PC-3 prostate = test system: PC-3 prostate
RPMI-8226 leukemia = test system: RPMI-8226 leukemia
RXF 393 renal = test system: RXF 393 renal
SF-268 CNS = test system: SF-268 CNS
SF-295 CNS = test system: SF-295 CNS
SF-539 CNS = test system: SF-539 CNS
SK-MEL-2 melanoma = test system: SK-MEL-2 melanoma
SK-MEL-28 melanoma = test system: SK-MEL-28 melanoma
SK-MEL-5 melanoma = test system: SK-MEL-5 melanoma
SK-OV-3 ovarian = test system: SK-OV-3 ovarian
SN12C renal = test system: SN12C renal
SNB-19 CNS = test system: SNB-19 CNS
SNB-75 CNS = test system: SNB-75 CNS
SR leukemia = test system: SR leukemia
SW-620 colon = test system: SW-620 colon
T-47D breast = test system: T-47D breast
TK-10 renal = test system: TK-10 renal
U251 CNS = test system: U251 CNS
UACC-257 melanoma = test system: UACC-257 melanoma
UACC-62 melanoma = test system: UACC-62 melanoma
UO-31 renal = test system: UO-31 renal

SMILES: NC(=O)c1c(NC(=O)c2ccccc2C(F)(F)F)sc2c1CCC(=O)C2
- GI50 (786-0 renal): 4.29 µM
- TGI (786-0 renal): > 100 µM
- GI50 (A498 renal): 9.93 µM
- TGI (A498 renal): 40.3 µM
- GI50 (A549 NSCLC): 3.72 µM
- TGI (A549 NSCLC): > 100 µM
- GI50 (ACHN renal): 1.01 µM
- TGI (ACHN renal): 2.66 µM
- GI50 (BT-549 breast): 0.947 µM
- TGI (BT-549 breast): 76.5 µM
- GI50 (CAKI-1 renal): 1.39 µM
- TGI (CAKI-1 renal): 3.05 µM
- GI50 (CCRF-CEM leukemia): 0.429 µM
- TGI (CCRF-CEM leukemia): > 100 µM
- GI50 (DU-145 prostate): 4.54 µM
- TGI (DU-145 prostate): > 100 µM
- GI50 (EKVX NSCLC): 2.81 µM
- TGI (EKVX NSCLC): 12.1 µM
- GI50 (HCC-2998 colon): 2.88 µM
- TGI (HCC-2998 colon): 12.3 µM
- GI50 (HCT-116 colon): 0.493 µM
- TGI (HCT-116 colon): 8.14 µM
- GI50 (HCT-15 colon): 0.493 µM
- TGI (HCT-15 colon): 2.07 µM
- GI50 (HL-60(TB) leukemia): 1.1 µM
- TGI (HL-60(TB) leukemia): 7.37 µM
- GI50 (HOP-62 NSCLC): 3.97 µM
- TGI (HOP-62 NSCLC): > 100 µM
- GI50 (HS 578T breast): 3.04 µM
- TGI (HS 578T breast): > 100 µM
- GI50 (HT29 colon): 1.97 µM
- TGI (HT29 colon): 6.65 µM
- GI50 (IGROV1 ovarian): 2.46 µM
- TGI (IGROV1 ovarian): 9.48 µM
- GI50 (K-562 leukemia): 0.412 µM
- TGI (K-562 leukemia): > 100 µM
- GI50 (KM12 colon): 3.66 µM
- TGI (KM12 colon): 14.6 µM
- GI50 (M14 melanoma): 2.76 µM
- TGI (M14 melanoma): 19.9 µM
- GI50 (MALME-3M melanoma): 2 µM
- TGI (MALME-3M melanoma): 5.25 µM
- GI50 (MCF7 breast): 2.24 µM
- TGI (MCF7 breast): 9.87 µM
- GI50 (MDA-MB-231 breast): 1.95 µM
- TGI (MDA-MB-231 breast): 4.3 µM
- GI50 (MDA-MB-435): 2.94 µM
- TGI (MDA-MB-435): 8.7 µM
- GI50 (MOLT-4 leukemia): 2.02 µM
- TGI (MOLT-4 leukemia): 22.3 µM
- GI50 (NCI-H226 lung): 1.97 µM
- TGI (NCI-H226 lung): 4.53 µM
- GI50 (NCI-H23 lung): 1.34 µM
- TGI (NCI-H23 lung): 5.63 µM
- GI50 (NCI-H460 lung): 3.52 µM
- TGI (NCI-H460 lung): 16 µM
- GI50 (NCI-H522 lung): 0.391 µM
- TGI (NCI-H522 lung): 1.92 µM
- GI50 (NCI/ADR-RES ovarian): 2.33 µM
- TGI (NCI/ADR-RES ovarian): 18.3 µM
- GI50 (OVCAR-8 ovarian): 2.6 µM
- TGI (OVCAR-8 ovarian): > 100 µM
- GI50 (PC-3 prostate): 0.307 µM
- TGI (PC-3 prostate): 4.43 µM
- GI50 (RPMI-8226 leukemia): 0.36 µM
- TGI (RPMI-8226 leukemia): > 100 µM
- GI50 (RXF 393 renal): 1.37 µM
- TGI (RXF 393 renal): 3.83 µM
- GI50 (SF-268 CNS): 3.6 µM
- TGI (SF-268 CNS): > 100 µM
- GI50 (SF-295 CNS): 2.55 µM
- TGI (SF-295 CNS): 7.71 µM
- GI50 (SF-539 CNS): 0.605 µM
- TGI (SF-539 CNS): 2.09 µM
- GI50 (SK-MEL-2 melanoma): 2.5 µM
- TGI (SK-MEL-2 melanoma): 6.84 µM
- GI50 (SK-MEL-28 melanoma): 1.89 µM
- TGI (SK-MEL-28 melanoma): 5.5 µM
- GI50 (SK-MEL-5 melanoma): 1.78 µM
- TGI (SK-MEL-5 melanoma): 3.45 µM
- GI50 (SK-OV-3 ovarian): 3.47 µM
- TGI (SK-OV-3 ovarian): > 100 µM
- GI50 (SN12C renal): 2.59 µM
- TGI (SN12C renal): 12.6 µM
- GI50 (SNB-19 CNS): 3.74 µM
- TGI (SNB-19 CNS): > 100 µM
- GI50 (SNB-75 CNS): 1.95 µM
- TGI (SNB-75 CNS): 8.2 µM
- GI50 (SR leukemia): 0.466 µM
- TGI (SR leukemia): > 100 µM
- GI50 (SW-620 colon): 0.402 µM
- TGI (SW-620 colon): 13.8 µM
- GI50 (T-47D breast): 0.492 µM
- TGI (T-47D breast): 5.71 µM
- GI50 (TK-10 renal): 3.2 µM
- TGI (TK-10 renal): > 100 µM
- GI50 (U251 CNS): 0.99 µM
- TGI (U251 CNS): 19.1 µM
- GI50 (UACC-257 melanoma): 2.48 µM
- TGI (UACC-257 melanoma): 7.38 µM
- GI50 (UACC-62 melanoma): 1.29 µM
- TGI (UACC-62 melanoma): 3.19 µM
- GI50 (UO-31 renal): 1.12 µM
- TGI (UO-31 renal): 2.33 µM
